In patent US20260356851A1, “TRICYCLIC COMPOUNDS AND USES THEREOF” (HUTCHMED LIMITED, priority 2023, published 2026):
Like-named read-outs stand apart in the source and are kept apart here.

What was measured:
Format in all cases: cell-based
[1] = target: T1, pERK1/2 (Thr202/Tyr204), NCI-1H441 (KRAS G12V) (Homo sapiens, UniProt P01116, G12V); test: Assay of intracellular pERK1/2 (Thr202/Tyr204) phosphorylation in NCI-H441 cells (KRAS G12V)
T1 construct: pERK1/2 HTRF read-out
Outline: (§1)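 HTRF detection of Thr202/Tyr204-phosphorylated ERK1/2 (665/615 nm ratio) in lysates from cells treated 2 days with serially 3-fold diluted compound.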

[2] = target: T2, pERK1/2 (Thr202/Tyr204), NCI-1H358 (KRAS G12C) (Homo sapiens, UniProt P01116, G12C); test: Assay of intracellular pERK1/2 (Thr202/Tyr204) phosphorylation in NCI-H358 cells (KRAS G12C)
T2 construct: pERK1/2 HTRF read-out
T2 sequence (P01116 1-188 isoform P01116-2 G12C): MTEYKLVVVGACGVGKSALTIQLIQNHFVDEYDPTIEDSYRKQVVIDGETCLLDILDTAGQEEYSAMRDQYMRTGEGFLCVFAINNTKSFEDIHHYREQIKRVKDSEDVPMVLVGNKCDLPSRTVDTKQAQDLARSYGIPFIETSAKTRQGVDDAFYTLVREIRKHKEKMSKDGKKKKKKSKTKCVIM
Outline: as §1

[3] = target: T3, pERK1/2 (Thr202/Tyr204), PANC-1 (KRAS G121D) (Homo sapiens, UniProt P01116, G12D); test: Assay of intracellular pERK1/2 (Thr202/Tyr204) phosphorylation in PANC-1 cells (KRAS G12D)
T3 construct: pERK1/2 HTRF read-out
T3 sequence (P01116 1-188 isoform P01116-2 G12D): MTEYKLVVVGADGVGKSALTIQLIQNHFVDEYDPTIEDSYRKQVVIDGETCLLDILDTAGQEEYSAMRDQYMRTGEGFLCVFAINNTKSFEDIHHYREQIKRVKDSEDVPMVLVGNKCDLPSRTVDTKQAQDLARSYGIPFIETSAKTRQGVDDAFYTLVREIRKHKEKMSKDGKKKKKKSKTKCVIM
Outline: as §1

[4] = pERK1/2, 2 days, read-out: NCI-H441 (KRAS G12V) IC50
[5] = pERK1/2, 2 days, read-out: NCI-H358 (KRAS G12C) IC50
[6] = pERK1/2, 2 days, read-out: PANC-1 (KRAS G12D) IC50
[7] = read-out: NCI-H441 (KRAS G12V) IC50, pERK1/2, 2 days
[8] = read-out: NCI-H358 (KRAS G12C) IC50, pERK1/2, 2 days
[9] = read-out: PANC-1 (KRAS G12D) IC50, pERK1/2, 2 days

T1 sequence (P01116 1-188 isoform P01116-2 G12V): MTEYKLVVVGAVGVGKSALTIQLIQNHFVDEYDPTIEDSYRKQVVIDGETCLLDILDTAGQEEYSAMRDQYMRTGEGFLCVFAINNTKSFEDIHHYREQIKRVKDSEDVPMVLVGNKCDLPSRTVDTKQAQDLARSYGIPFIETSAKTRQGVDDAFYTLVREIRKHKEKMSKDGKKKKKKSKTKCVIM

Row | SMILES | IC50 [1, 4] [nM] | IC50 [2, 5] [nM] | IC50 [3, 6] [nM] | IC50 [1, 7] [nM] | IC50 [2, 8] [nM] | IC50 [3, 9] [nM]
1 | Cc1cc2[nH]ncc2c(-c2nc3c4c(nc(OC[C@@]56CCCN5C[C@H](F)C6)nc4c2F)N(C(C)c2cc(Cl)cnc2N)[C@@H](C)CO3)c1C(F)(F)F (stereo partly drawn) [Compound 334, (*)5-Chloro-3-(1-((9S)-4-fluoro-2-(((2R,7aS)-2-fluorotetrahydro-1H-pyrrolizin-7a(5H)-yl)methoxy)-9-methyl-5-(6-methyl-5-(trifluoromethyl)-1H-indazol-4-yl)-8,9-dihydro-1OH-7-oxa-1,3,6,10-tetraazacyclohepta[de]naphthalen-10-yl)ethyl)pyridin-2-amine] | 0.5 | 0.3 | 0.6 | – | – | –
2 | Cc1c(F)c(N)cc(-c2nc3c4c(nc(OC[C@@]56CCCN5CC5(CC5(F)F)C6)nc4c2F)N(C(C)c2cccnc2N)CCO3)c1C(F)(F)F (single isomer, unassigned) [Compound 228] | 0.5 | 0.2 | 0.8 | – | – | –
3 | CCc1c(F)ccc2cc(OC(=O)NC)cc(-c3nc4c5c(nc(OC[C@@]67CCCN6C[C@H](F)C7)nc5c3F)N(C(C)c3cccnc3N)[C@@H](C)CO4)c12 (stereo partly drawn) [Compound 296] | – | – | – | 2 | 0.5 | 0.3
4 | Cc1cc(N)cc(-c2nc3c4c(nc(OC[C@@H]5CCCN5C)nc4c2F)N(C(C)c2cccnc2N)CCO3)c1C(F)(F)F (single isomer, unassigned) [Compound 76, 3-((R or S)-1-(5-(5-amino-3-methyl-2-(trifluoromethyl)phenyl)-4-fluoro-2-(((S)-1-methylpyrrolidin-2-yl)methoxy)-8,9-dihydro-10H-7-oxa-1,3,6,10-tetraazacyclohepta[de]naphthalen-10-yl)ethyl)pyridin-2-amine] | 0.7 | 0.5 | 18 | – | – | –
5 | [2H]C1([2H])CC[C@@]2(C([2H])([2H])Oc3nc4c5c(nc(-c6cc(N)cc(C)c6C(F)(F)F)c(F)c5n3)OCCN4C(C)c3cccnc3N)C[C@@H](F)CN12 (stereo partly drawn) [Compound 105] | 0.6 | 0.4 | 2 | – | – | –
6 | Cc1c(F)c(N)cc(-c2nc3c4c(nc(OC[C@@]56CCCN5C[C@H](F)C6)nc4c2F)N(Cc2cccnc2N)CCO3)c1C(F)(F)F [Compound 180] | 6 | 1 | 35 | – | – | –
7 | Cc1cc(N)cc(-c2nc3c4c(nc(OC[C@H]5CCCN5C)nc4c2F)N(C(C)c2cccnc2N)CCO3)c1C(F)(F)F (single isomer, unassigned) [Compound 109, 3-((R or S)-1-(5-(5-amino-3-methyl-2-(trifluoromethyl)phenyl)-4-fluoro-2-(((R)-1-methylpyrrolidin-2-yl)methoxy)-8,9-dihydro-10H-7-oxa-1,3,6,10-tetraazacyclohepta[de]naphthalen-10-yl)ethyl)pyridin-2-amine] | 2 | 0.9 | 41 | – | – | –
8 | CC(c1cccnc1N)N1CCOc2nc(-c3cc(N)cc(F)c3C(F)(F)F)c(F)c3nc(OC[C@@]45CCCN4C[C@H](F)C5)nc1c23 (stereo partly drawn) [Compound 82] | 0.8 | 0.8 | 15 | – | – | –
9 | Cc1c(F)c(N)cc(-c2nc3c4c(nc(OC[C@@]56CCCN5C[C@H](F)C6)nc4c2F)N(C2(c4cccnc4N)CC2)CCO3)c1C(F)(F)F [Compound 187] | 44 | 63 | > 100 | – | – | –
10 | Cc1c(F)c(N)cc(-c2nc3c4c(nc(OC[C@@]56CCCN5C[C@H](F)C6)nc4c2F)N([C@H](C)c2cccnc2N)CCO3)c1C(F)(F)F (single isomer, unassigned) [Compound 137] | 0.2 | 0.1 | 0.9 | – | – | –
11 | C#Cc1c(F)ccc2cc(O)cc(-c3nc4c5c(nc(OC[C@@]67CCCN6C[C@H](F)C7)nc5c3F)N(C(C)c3cccnc3N)[C@@H](C)CO4)c12 (single isomer, unassigned) [Compound 274, 4-((S)-10-((R or S)-1-(2-aminopyridin-3-yl)ethyl)-4-fluoro-2-(((2R,7aS)-2-fluorotetrahydro-1H-pyrrolizin-7a(5H)-yl)methoxy)-9-methyl-9,10-dihydro-8H-7-oxa-1,3,6,10-tetraazacyclohepta[de]naphthalen-5-yl)-5-ethynyl-6-fluoronaphthalen-2-ol] | 8 | 5 | 13 | – | – | –
12 | CC(c1cccnc1N)N1CCOc2nc(-c3cc(N)c(F)c(F)c3F)c(F)c3nc(OC[C@@]45CCCN4C[C@H](F)C5)nc1c23 (stereo partly drawn) [Compound 158] | > 100 | 96 | > 100 | – | – | –
13 | CC(c1cccnc1N)N1c2nc(OC[C@@]34CCCN3C[C@H](F)C4)nc3c(F)c(-c4cc(N)c(F)c(Cl)c4C(F)(F)F)nc(c23)OC[C@@H]1C (single isomer, unassigned) [Compound 272, 3-((R or S)-1-((S)-5-(5-amino-3-chloro-4-fluoro-2-(trifluoromethyl)phenyl)-4-fluoro-2-(((2R,7aS)-2-fluorotetrahydro-1H-pyrrolizin-7a(5H)-yl)methoxy)-9-methyl-8,9-dihydro-10H-7-oxa-1,3,6,10-tetraazacyclohepta[de]naphthalen-10-yl)ethyl)pyridin-2-amine] | > 100 | 57 | > 100 | – | – | –
14 | CC(c1cccn2ccnc12)N1c2nc(OC[C@@]34CCCN3C[C@H](F)C4)nc3c(F)c(-c4cc(O)cc5ccc(F)c(F)c45)nc(c23)OC[C@@H]1C (stereo partly drawn) [Compound 310, (*)5,6-Difluoro-4-((9S)-4-fluoro-2-(((2R,7aS)-2-fluorotetrahydro-1H-pyrrolizin-7a(5H)-yl)methoxy)-10-(1-(imidazo[1,2-a]pyridin-8-yl)ethyl)-9-methyl-9,10-dihydro-8H-7-oxa-1,3,6,10-tetraazacyclohepta[de]naphthalen-5-yl)naphthalen-2-ol] | – | – | – | > 100 | > 100 | > 100
15 | CC(c1cccnc1N)N1CCOc2nc(-c3c(C(F)(F)F)ccc4[nH]ncc34)c(F)c3nc(OC[C@@]45CCCN4C[C@H](F)C5)nc1c23 (stereo partly drawn) [Compound 15] | 17 | 2 | 175 | – | – | –
16 | C#Cc1c(F)ccc2cc(O)cc(-c3nc4c5c(nc(OC[C@@H]6C[C@@H](F)CN6C)nc5c3F)N(C(C)c3cccnc3N)[C@@H](C)CO4)c12 (single isomer, unassigned) [Compound 285, 4-((S)-10-((R or S)-1-(2-aminopyridin-3-yl)ethyl)-4-fluoro-2-(((2S,4R)-4-fluoro-1-methylpyrrolidin-2-yl)methoxy)-9-methyl-9,10-dihydro-8H-7-oxa-1,3,6,10-tetraazacyclohepta[de]naphthalen-5-yl)-5-ethynyl-6-fluoronaphthalen-2-ol] | 17 | 27 | 86 | – | – | –
17 | Cc1cc(N)cc(-c2nc3c4c(nc(OC[C@@]56CCCN5C[C@H](F)C6)nc4c2F)N([C@H](C)c2cccnc2N)CCCO3)c1C(F)(F)F (single isomer, unassigned) [Compound 166, 3-((R or S)-1-(5-(5-amino-3-methyl-2-(trifluoromethyl)phenyl)-4-fluoro-2-(((2R,7aS)-2-fluorotetrahydro-1H-pyrrolizin-7a(5H)-yl)methoxy)-9,10-dihydro-77-oxa-1,3,6,11-tetraazacycloocta[de]naphthalen-11(8H)-yl)ethyl)pyridin-2-amine] | > 100 | 69 | > 100 | – | – | –
18 | CC(c1cccnc1N)N1CCOc2nc(-c3cc(O)cc4ccc(F)c(F)c34)c(F)c3nc(OC[C@@H]4COCCN4)nc1c23 (stereo partly drawn) [Compound 13] | 247 | 137 | > 1000 | – | – | –
19 | [2H]C1([2H])CC[C@@]2(C([2H])([2H])Oc3nc4c5c(nc(-c6cc(N)cc(Cl)c6C(F)(F)F)c(F)c5n3)OCCN4C(C)c3cccnc3N)C[C@@H](F)CN12 (stereo partly drawn) [Compound 113] | 0.8 | 0.7 | 2 | – | – | –
20 | Cc1c(F)c(N)cc(-c2nc3c4c(nc(OC[C@@]56CCCN5C[C@H](F)C6)nc4c2F)N(C(C)c2cccnc2N)[C@H](C)CO3)c1C(F)(F)F (single isomer, unassigned) [Compound 255, 3-((R or S)-1-((R)-5-(5-amino-4-fluoro-3-methyl-2-(trifluoromethyl)phenyl)-4-fluoro-2-(((2R,7aS)-2-fluorotetrahydro-1H-pyrrolizin-7a(5H)-yl)methoxy)-9-methyl-8,9-dihydro-10H-7-oxa-1,3,6,10-tetraazacyclohepta[de]naphthalen-10-yl)ethyl)pyridin-2-amine] | > 100 | 37 | > 100 | – | – | –
21 | CC(c1cccnc1N)N1CCOc2nc(-c3cc(O)cc4ccc(F)c(F)c34)c(F)c3nc(OC[C@@H]4CCCN4C)nc1c23 (stereo partly drawn) [Compound 6] | 17 | 4 | 136 | – | – | –
22 | C#Cc1c(F)ccc2cc(O)cc(-c3nc4c5c(nc(OC[C@@]67CCCN6C[C@H](F)C7)nc5c3F)N(C(C)c3cccnc3N)CCO4)c12 (stereo partly drawn) [Compound 259] | 1 | 0.9 | 1 | – | – | –
